The source made the active and inactive calls. The calls are words filed in the database; no cut-off is given here.
Key:
Cyclin-T1 [1] = target: T1, Cyclin-T1 (Homo sapiens, UniProt O60563); assay: Induction of HyT-mediated degradation of Cyclin T1 in human 22Rv1 cells incubated for 24 hrs by immunoblot analysis; format: cell-based
[2] = target: T2, CDK9/cyclin T1 (Homo sapiens) (UniProt O60563+P50750); assay: Induction of CDK9/Cyclin T1 degradation in human 22Rv1 cells assessed as downregulation of NKX3-1 gene expression at 2 uM incubated for 24 hrs by RNA-Seq based analysis; format: cell-based
[3] = target: Cyclin-dependent kinase 6 (Homo sapiens) (UniProt Q00534); assay: Induction of CDK6 degradation in human 22Rv1 cells assessed as downregulation of CDK6 level at 3 uM measured after 12 hrs by DIA-based proteomics analysis; format: cell-based
Chain of Cyclin-dependent kinase 6 (Homo sapiens) (Q00534 whole entry): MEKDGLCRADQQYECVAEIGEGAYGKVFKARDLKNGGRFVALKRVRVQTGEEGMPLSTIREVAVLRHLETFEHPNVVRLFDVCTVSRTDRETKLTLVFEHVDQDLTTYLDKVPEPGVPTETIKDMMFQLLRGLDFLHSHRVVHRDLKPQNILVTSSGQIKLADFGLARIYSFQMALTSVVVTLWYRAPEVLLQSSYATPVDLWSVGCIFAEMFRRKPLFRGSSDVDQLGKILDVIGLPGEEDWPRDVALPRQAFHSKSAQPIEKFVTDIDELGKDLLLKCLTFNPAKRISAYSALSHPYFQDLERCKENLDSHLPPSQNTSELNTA

Cyclin-T1 [4] = target: T1, Cyclin-T1; assay: Induction of HyT-mediated degradation of Cyclin T1 in human 22Rv1 cells at 3 uM measured after 5 to 18 hrs by immunoblot analysis; format: cell-based; settings: time 5-18 hrs
[5] = target: T3, Cyclin-dependent kinase 9 (Homo sapiens, UniProt P50750); assay: Induction of HyT-mediated degradation of CDK9 in human 22Rv1 cells at 0.3 to 3 uM incubated for 24 hrs by immunoblot analysis; format: cell-based; settings: dose 0.3-3 µM
T3 sequence (P50750 whole entry): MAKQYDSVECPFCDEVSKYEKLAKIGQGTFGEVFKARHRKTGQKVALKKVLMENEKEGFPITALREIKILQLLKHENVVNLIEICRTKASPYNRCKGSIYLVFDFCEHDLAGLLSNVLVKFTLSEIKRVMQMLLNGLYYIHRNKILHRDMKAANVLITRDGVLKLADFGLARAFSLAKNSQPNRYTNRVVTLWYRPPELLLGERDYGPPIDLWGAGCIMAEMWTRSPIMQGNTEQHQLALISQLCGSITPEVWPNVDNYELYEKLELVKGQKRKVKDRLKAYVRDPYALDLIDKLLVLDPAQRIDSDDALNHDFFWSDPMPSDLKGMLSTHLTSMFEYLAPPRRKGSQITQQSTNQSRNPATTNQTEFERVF

[6] = target: T2, CDK9/cyclin T1 (Homo sapiens); assay: Induction of CDK9/Cyclin T1 degradation in human 22Rv1 cells assessed as downregulation of MCL1 protein expression at 0.3 to 3 uM incubated for 24 hrs by immunoblot analysis; format: cell-based; settings: dose 0.3-3 µM
CWR22R [7] = assay: Inhibition of colony formation in human 22Rv1 cells at 100 to 200 nM treated for 14 days with replacement with fresh medium containing compound for every 48 hrs by crystal violet staining based analysis; format: functional, cell-based; settings: dose 100-200 nM, time 14.0 day
[8] = target: T2, CDK9/cyclin T1 (Homo sapiens); assay: Induction of CDK9/Cyclin T1 degradation in human 22Rv1 cells assessed as downregulation of NOTCH1 gene expression at 2 uM incubated for 24 hrs by RNA-Seq based analysis; format: cell-based
[9] = target: T2, CDK9/cyclin T1 (Homo sapiens); assay: Induction of CDK9/Cyclin T1 degradation in human 22Rv1 cells assessed as downregulation of JMJD6 protein expression at 3 uM measured after 36 hrs by DIA-based proteomics analysis; format: cell-based
[10] = target: T2, CDK9/cyclin T1 (Homo sapiens); assay: Induction of CDK9/Cyclin T1 degradation in human 22Rv1 cells assessed as downregulation of CDC6 gene expression at 2 uM incubated for 24 hrs by RNA-Seq based analysis; format: cell-based
[11] = target: T2, CDK9/cyclin T1 (Homo sapiens); assay: Induction of CDK9/Cyclin T1 degradation in human 22Rv1 cells assessed as downregulation of WNT2 gene expression at 2 uM incubated for 24 hrs by RNA-Seq based analysis; format: cell-based
[12] = target: T2, CDK9/cyclin T1 (Homo sapiens); assay: Induction of CDK9/Cyclin T1 degradation in human 22Rv1 cells assessed as downregulation of c-Myc protein expression at 2 uM measured after 48 hrs by immunoblot analysis; format: cell-based
[13] = target: T2, CDK9/cyclin T1 (Homo sapiens); assay: Induction of CDK9/Cyclin T1 degradation in human 22Rv1 cells assessed as downregulation of AKR1C3 gene expression at 2 uM incubated for 24 hrs by RNA-Seq based analysis; format: cell-based
[14] = target: T2, CDK9/cyclin T1 (Homo sapiens); assay: Induction of CDK9/Cyclin T1 degradation in human 22Rv1 cells assessed as downregulation of KLK1 gene expression at 2 uM incubated for 24 hrs by RNA-Seq based analysis; format: cell-based
[15] = target: Glycogen synthase kinase-3 alpha (Homo sapiens) (UniProt P49840); assay: Induction of Hyt-mediated degradation of GSK3A in human 22Rv1 cells assessed as downregulation of GSK3A protein level at 2 uM incubated for 24 hrs by DIA-based proteomics analysis; format: cell-based
Chain of Glycogen synthase kinase-3 alpha (Homo sapiens) (P49840 2-483 limits assumed): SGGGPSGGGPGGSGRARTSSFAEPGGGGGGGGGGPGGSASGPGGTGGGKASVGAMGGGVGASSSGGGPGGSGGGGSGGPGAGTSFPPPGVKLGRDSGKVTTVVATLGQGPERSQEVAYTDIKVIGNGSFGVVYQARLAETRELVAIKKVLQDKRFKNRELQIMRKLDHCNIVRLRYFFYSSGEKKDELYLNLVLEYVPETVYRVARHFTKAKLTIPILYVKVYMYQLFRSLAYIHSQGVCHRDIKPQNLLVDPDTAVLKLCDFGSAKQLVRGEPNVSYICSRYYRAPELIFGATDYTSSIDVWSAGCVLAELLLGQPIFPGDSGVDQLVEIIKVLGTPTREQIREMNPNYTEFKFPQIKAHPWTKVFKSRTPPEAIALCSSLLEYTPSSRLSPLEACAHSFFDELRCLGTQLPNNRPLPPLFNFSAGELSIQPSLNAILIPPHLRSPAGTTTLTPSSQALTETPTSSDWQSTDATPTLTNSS

[16] = target: T2, CDK9/cyclin T1 (Homo sapiens); assay: Induction of CDK9/Cyclin T1 degradation in human 22Rv1 cells assessed as downregulation of c-Myc protein expression at 0.3 to 3 uM measured after 24 hrs by immunoblot analysis; format: cell-based; settings: dose 0.3-3 µM
[17] = target: T3, Cyclin-dependent kinase 9; assay: Induction of HyT-mediated degradation of CDK9 in human 22Rv1 cells at 3 uM measured after 5 to 18 hrs by immunoblot analysis; format: cell-based; settings: time 5-18 hrs
CWR22R [18] = assay: Induction of cell cycle arrest in human 22Rv1 cells assessed as accumulation of cells at G1 phase at 0.3 to 1 uM incubated for 24 hrs by propidium iodide staining based flow cytometry; format: functional; settings: dose 0.3-1 µM
[19] = target: T2, CDK9/cyclin T1 (Homo sapiens); assay: Induction of CDK9/Cyclin T1 degradation in human 22Rv1 cells assessed as decrease in cyclin B1 protein expression at 3 uM measured for 36 hrs by DIA-based proteomics analysis; format: cell-based
[20] = target: T3, Cyclin-dependent kinase 9; assay: Induction of HyT-mediated degradation of CDK9 in human 22Rv1 cells at 3 uM measured for 36 hrs by DIA-based proteomics analysis; format: cell-based
[21] = target: T3, Cyclin-dependent kinase 9; assay: Induction of HyT-mediated degradation of CDK9 in human 22Rv1 cells incubated for 24 hrs by immunoblot analysis; format: cell-based
[22] = target: T2, CDK9/cyclin T1 (Homo sapiens); assay: Induction of CDK9/Cyclin T1 degradation in human 22Rv1 cells assessed as downregulation of AR-V7 splice variant protein expression at 0.3 to 3 uM measured after 24 hrs by immunoblot analysis; format: cell-based; settings: dose 0.3-3 µM
[23] = target: T2, CDK9/cyclin T1 (Homo sapiens); assay: Induction of CDK9/Cyclin T1 degradation in human 22Rv1 cells assessed as downregulation of SLC1A5 gene expression at 2 uM incubated for 24 hrs by RNA-Seq based analysis; format: cell-based
Cyclin-T1 [24] = target: T1, Cyclin-T1; assay: Induction of Hyt-mediated degradation of cyclin T1 in human 22Rv1 cells assessed as downregulation of cyclin T1 level at 2 uM incubated for 24 hrs by DIA-based proteomics analysis; format: cell-based
Cyclin-T1 [25] = target: T1, Cyclin-T1; assay: Induction of HA-tagged Cyclin T1 (unknown origin) polyubiquitination expressed in HEK293T cells co-transfected with Flag-tagged CDK9 and Myc ubiquitin assessed as increase in K48-linkage poly-ubiqutinated Cyclin T1 level at 1 to 2 uM incubated for 20 hrs by western blot analysis; format: cell-based; settings: dose 1-2 µM
[26] = target: T3, Cyclin-dependent kinase 9; assay: Induction of HyT-mediated degradation of CDK9 in human 22Rv1 cells assessed as reduction in CDK9 protein level at 3 uM measured after 24 to 48 hrs by immunoblot analysis; format: cell-based; settings: time 24-48 hrs
Cyclin-T1 [27] = target: T1, Cyclin-T1; assay: Induction of HA-tagged Cyclin T1 (unknown origin) polyubiquitination expressed in HEK293T cells co-transfected with Flag-tagged CDK9 and Myc ubiquitin assessed as increase in K48-linkage poly-ubiqutinated Cyclin T1 level at 1 to 2 uM incubated for 20 hrs by immunoprecipitation analysis; format: cell-based; settings: dose 1-2 µM
CWR22R [28] = assay: Induction of cell cycle arrest in human 22Rv1 cells assessed as accumulation of cells at sub-G1 phase at 0.3 to 1 uM incubated for 24 hrs by propidium iodide staining based flow cytometry; format: functional; settings: dose 0.3-1 µM
CWR22R [29] = assay: Downregulation of CDK7 level in human 22Rv1 cells at 3 uM measured after 12 hrs by DIA-based proteomics analysis; format: functional, cell-based
[30] = target: T2, CDK9/cyclin T1 (Homo sapiens); assay: Induction of CDK9/Cyclin T1 degradation in human 22Rv1 cells assessed as downregulation of AR-V7 splice variant protein expression at 2 uM measured after 24 hrs by immunoblot analysis; format: cell-based
[31] = target: T2, CDK9/cyclin T1 (Homo sapiens); assay: Induction of CDK9/Cyclin T1 degradation in human 22Rv1 cells assessed as downregulation of MYCN gene expression at 2 uM incubated for 24 hrs by RNA-Seq based analysis; format: cell-based
[32] = target: T2, CDK9/cyclin T1 (Homo sapiens); assay: Induction of CDK9/Cyclin T1 degradation in human 22Rv1 cells assessed as downregulation of CCNE2 gene expression at 2 uM incubated for 24 hrs by RNA-Seq based analysis; format: cell-based
CWR22R [33] = assay: Downregulation of CDK4 level in human 22Rv1 cells at 3 uM measured after 12 hrs by DIA-based proteomics analysis; format: functional, cell-based

T1 sequence (O60563 whole entry): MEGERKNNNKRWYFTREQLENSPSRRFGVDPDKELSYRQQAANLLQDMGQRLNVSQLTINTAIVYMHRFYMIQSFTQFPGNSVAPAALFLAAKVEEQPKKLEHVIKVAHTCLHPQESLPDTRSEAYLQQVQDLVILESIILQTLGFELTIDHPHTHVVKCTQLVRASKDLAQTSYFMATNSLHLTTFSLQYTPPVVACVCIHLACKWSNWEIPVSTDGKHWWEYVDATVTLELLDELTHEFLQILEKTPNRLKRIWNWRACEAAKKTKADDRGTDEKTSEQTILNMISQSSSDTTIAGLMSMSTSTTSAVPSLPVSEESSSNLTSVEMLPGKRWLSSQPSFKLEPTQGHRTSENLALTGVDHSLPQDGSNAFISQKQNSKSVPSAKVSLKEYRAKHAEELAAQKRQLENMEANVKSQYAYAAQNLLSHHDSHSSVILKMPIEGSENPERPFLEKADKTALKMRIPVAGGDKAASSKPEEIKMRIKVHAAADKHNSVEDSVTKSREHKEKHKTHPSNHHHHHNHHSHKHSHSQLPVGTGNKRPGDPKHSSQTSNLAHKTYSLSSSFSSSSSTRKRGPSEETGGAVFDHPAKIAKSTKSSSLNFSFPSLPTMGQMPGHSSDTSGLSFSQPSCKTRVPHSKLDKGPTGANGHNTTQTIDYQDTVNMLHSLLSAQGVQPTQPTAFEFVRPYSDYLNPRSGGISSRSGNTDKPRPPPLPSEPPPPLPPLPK

Which DC50 (Cyclin-T1 [1]) does the source give for `CC(C)[C@@H]1CC[C@@H](C)C[C@H]1OCC(=O)NCCS(=O)(=O)N1CCC(C(=O)Nc2ncc(SCc3ncc(C(C)(C)C)o3)s2)CC1` here?
The DC50 was 589 nM.

What about the Activity [2] of the same molecule?
Its Activity is “Active”.

And the Activity [3]?
Its Activity is “Active”.

What about the Activity (Cyclin-T1 [4]) of the same molecule?
The Activity was “Active”.

What about the Activity [5] of the same molecule?
Its Activity is “Active”.

And the Activity [6]?
The Activity was “Active”.

And the inhibition (CWR22R [7])?
The inhibition was “Active”.

What about the Activity [8] of the same molecule?
The Activity was “Active”.

What about the Activity [9] of the same molecule?
Its Activity is “Active”.

And the Activity [10]?
The Activity was “Active”.

What about the Activity [11] of the same molecule?
Its Activity is “Active”.

And the Activity [12]?
Its Activity is “Active”.

What about the Activity [13] of the same molecule?
Its Activity is “Active”.

What about the Activity [14] of the same molecule?
The Activity was “Active”.

And the Activity [15]?
The Activity was “Active”.

What about the Activity [16] of the same molecule?
The Activity was “Active”.

What about the Activity [17] of the same molecule?
Its Activity is “Active”.

And the Activity (CWR22R [18])?
Its Activity is “Active”.

And the Activity [19]?
Its Activity is “Active”.

And the Activity [20]?
Its Activity is “Active”.

What about the DC50 [21] of the same molecule?
The DC50 was 662 nM.

And the Activity [22]?
The Activity was “Active”.

And the Activity [23]?
The Activity was “Active”.

What about the Activity (Cyclin-T1 [24]) of the same molecule?
Its Activity is “Active”.

What about the Activity (Cyclin-T1 [25]) of the same molecule?
The Activity was “Active”.

What about the Activity [26] of the same molecule?
Its Activity is “Active”.

What about the Activity (Cyclin-T1 [27]) of the same molecule?
Its Activity is “Active”.

What about the Activity (CWR22R [28]) of the same molecule?
Its Activity is “Active”.

What about the inhibition (CWR22R [29]) of the same molecule?
Its inhibition is “Active”.

And the Activity [30]?
The Activity was “Active”.

And the Activity [31]?
The Activity was “Active”.

And the Activity [32]?
Its Activity is “Active”.

What about the inhibition (CWR22R [33]) of the same molecule?
The inhibition was “Active”.

From ChEMBL document CHEMBL5113511, “Discovery of Small-Molecule Degraders of the CDK9-Cyclin T1 Complex for Targeting Transcriptional Addiction in Prostate Cancer” (J Med Chem, 2022)
